# According to article PMC7252619 (PLoS ONE, 2020):
# “And” between values parts separate entries of the source, which are not always exact repeats. Identical values can stand only once. Like-named read-outs stand apart in the source and are kept apart here.
# Legend:
# Assay in all cases: Kinase activity test (ReactionBiology), % enzyme activity relative to DMSO
# Assay type in all cases: biochemical
# DAPK1 = molecular target: T1, DAPK1 (Homo sapiens, UniProt P53355)
# T1 construct: purchased ReactionBiology
# T1 sequence (P53355 whole entry): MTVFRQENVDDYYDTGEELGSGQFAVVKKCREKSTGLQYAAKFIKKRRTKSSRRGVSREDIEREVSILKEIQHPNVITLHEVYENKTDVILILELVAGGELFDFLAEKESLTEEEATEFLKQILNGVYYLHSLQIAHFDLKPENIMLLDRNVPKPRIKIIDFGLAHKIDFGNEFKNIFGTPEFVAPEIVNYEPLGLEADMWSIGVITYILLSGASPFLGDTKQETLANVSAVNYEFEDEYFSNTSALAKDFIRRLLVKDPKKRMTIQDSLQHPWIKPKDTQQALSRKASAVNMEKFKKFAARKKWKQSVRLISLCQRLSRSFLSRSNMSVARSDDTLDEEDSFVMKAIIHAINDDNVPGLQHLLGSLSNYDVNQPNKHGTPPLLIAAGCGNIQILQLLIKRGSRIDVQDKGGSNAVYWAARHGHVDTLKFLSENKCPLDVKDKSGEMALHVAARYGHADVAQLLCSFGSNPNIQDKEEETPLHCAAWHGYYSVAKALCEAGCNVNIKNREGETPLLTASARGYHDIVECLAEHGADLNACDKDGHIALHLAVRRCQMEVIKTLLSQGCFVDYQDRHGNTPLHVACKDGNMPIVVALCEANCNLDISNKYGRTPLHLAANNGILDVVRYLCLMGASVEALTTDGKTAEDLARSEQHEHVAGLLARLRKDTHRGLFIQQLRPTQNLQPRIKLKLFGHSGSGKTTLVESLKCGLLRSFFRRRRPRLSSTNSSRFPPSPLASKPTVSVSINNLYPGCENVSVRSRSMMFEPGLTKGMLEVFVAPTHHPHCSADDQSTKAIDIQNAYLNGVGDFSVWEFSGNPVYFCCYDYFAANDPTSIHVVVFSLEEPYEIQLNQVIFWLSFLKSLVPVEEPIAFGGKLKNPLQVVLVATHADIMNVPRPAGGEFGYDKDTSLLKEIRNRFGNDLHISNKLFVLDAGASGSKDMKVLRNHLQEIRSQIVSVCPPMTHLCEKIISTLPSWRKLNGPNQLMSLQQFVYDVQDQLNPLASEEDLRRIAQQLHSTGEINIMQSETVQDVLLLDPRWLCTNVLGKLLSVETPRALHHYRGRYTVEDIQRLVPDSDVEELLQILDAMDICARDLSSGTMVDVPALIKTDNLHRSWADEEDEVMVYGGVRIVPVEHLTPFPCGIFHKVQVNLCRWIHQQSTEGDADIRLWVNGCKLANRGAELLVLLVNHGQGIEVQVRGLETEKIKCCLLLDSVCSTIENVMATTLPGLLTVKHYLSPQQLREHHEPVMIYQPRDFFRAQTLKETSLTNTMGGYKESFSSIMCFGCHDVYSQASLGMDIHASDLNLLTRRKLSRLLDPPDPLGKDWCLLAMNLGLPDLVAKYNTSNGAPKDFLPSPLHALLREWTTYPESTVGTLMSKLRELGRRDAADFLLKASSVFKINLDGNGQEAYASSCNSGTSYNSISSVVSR
# CK1d = molecular target: T2, CK1d (Homo sapiens, UniProt P48730); conditions: for % Enzyme Activity (relative to DMSO controls), Data 1: replicate Data 1
# T2 construct: purchased ReactionBiology
# T2 sequence (P48730 whole entry): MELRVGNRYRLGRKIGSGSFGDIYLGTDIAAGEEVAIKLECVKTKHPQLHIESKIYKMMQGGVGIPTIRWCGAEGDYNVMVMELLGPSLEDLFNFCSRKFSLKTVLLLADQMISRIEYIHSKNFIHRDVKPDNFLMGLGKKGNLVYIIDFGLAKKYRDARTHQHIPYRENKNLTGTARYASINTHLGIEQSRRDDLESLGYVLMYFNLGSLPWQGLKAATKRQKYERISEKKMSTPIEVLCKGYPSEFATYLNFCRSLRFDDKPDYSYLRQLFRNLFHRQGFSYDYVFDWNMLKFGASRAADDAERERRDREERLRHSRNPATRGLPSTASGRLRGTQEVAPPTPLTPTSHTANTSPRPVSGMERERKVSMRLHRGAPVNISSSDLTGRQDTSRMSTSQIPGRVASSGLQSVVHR
# EPHB4 = molecular target: T3, EPHB4 (Homo sapiens, UniProt P54760);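 note: EPHB4 was one of ten selected kinases in the screening panel, with enzyme activity expressed as a percentage of DMSO controls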
# T3 construct: purchased ReactionBiology
# T3 sequence (P54760 16-987): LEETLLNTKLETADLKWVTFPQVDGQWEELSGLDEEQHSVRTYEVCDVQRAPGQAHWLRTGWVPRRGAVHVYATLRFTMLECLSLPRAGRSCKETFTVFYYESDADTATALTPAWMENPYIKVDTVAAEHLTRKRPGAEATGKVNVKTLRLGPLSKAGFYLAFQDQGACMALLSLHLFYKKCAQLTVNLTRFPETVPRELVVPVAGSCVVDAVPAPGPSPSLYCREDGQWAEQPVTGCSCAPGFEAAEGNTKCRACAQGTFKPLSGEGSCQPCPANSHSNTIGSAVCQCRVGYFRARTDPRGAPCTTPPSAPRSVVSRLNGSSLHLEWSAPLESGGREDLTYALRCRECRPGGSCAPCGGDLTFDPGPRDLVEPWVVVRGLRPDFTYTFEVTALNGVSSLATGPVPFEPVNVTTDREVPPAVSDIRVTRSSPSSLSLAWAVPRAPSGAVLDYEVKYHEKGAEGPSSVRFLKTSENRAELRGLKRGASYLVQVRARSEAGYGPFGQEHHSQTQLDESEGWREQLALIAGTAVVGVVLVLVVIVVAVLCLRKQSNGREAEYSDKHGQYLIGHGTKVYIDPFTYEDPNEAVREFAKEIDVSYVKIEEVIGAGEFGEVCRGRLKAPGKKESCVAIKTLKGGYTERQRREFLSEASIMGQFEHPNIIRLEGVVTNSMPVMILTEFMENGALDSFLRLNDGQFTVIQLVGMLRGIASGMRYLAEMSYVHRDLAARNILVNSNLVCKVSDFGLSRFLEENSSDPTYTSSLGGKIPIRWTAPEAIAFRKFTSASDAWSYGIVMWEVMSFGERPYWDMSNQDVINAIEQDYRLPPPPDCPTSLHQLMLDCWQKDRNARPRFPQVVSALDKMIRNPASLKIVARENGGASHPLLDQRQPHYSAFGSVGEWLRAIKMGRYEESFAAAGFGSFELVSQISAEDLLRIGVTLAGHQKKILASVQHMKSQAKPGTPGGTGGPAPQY
# VEGFR2 = VEGFR2 (Homo sapiens, UniProt P35968); design: purchased ReactionBiology; conditions: for remaining activity at 1 µM / remaining activity at 10 µM: VEGFR2;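 for all read-outs here: VEGFR2 was one member of a ten-kinase screening panel testing marketed FDA-approved drugs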
# Sequence of VEGFR2 (P35968 20-1356): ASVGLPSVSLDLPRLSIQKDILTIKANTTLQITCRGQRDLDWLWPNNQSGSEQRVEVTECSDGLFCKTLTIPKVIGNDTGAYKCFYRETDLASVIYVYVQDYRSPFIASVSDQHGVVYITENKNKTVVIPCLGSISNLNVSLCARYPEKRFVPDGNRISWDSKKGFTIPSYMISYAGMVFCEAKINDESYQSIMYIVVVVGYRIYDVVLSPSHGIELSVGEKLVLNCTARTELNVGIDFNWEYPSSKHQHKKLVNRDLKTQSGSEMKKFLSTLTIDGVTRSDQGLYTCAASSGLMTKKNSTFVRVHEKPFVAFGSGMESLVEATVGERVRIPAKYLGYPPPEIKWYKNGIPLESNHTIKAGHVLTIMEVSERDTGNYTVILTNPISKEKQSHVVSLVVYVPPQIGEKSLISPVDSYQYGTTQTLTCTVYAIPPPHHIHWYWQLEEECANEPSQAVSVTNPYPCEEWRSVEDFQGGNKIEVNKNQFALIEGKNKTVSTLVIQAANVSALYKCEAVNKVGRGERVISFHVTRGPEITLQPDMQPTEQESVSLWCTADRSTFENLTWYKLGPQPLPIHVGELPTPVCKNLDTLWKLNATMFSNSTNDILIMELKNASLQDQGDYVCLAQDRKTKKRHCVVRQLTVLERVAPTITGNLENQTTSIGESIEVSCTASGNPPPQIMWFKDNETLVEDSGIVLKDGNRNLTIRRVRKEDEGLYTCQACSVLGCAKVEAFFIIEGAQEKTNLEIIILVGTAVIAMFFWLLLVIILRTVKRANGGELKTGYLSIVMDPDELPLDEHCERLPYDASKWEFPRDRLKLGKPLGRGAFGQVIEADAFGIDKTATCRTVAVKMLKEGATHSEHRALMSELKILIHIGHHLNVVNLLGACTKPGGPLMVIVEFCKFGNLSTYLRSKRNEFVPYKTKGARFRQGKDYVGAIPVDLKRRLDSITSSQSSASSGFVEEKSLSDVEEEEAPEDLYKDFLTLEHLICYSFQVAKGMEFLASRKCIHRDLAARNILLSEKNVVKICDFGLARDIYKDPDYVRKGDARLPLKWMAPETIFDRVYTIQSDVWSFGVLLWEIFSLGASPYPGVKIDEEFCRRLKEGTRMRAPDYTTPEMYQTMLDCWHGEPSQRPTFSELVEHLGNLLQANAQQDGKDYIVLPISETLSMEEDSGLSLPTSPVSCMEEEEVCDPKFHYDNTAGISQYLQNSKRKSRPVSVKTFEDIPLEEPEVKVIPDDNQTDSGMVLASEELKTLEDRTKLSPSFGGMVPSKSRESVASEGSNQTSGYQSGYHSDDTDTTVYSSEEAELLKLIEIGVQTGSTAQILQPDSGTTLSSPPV
# [1] = read-out: % Enzyme Activity (relative to DMSO controls), Average
# [2] = read-out: % Enzyme Activity (relative to DMSO controls), Data 1
# [3] = read-out: % Enzyme Activity (relative to DMSO controls), Data 2
# [4] = Average, read-out: % Enzyme Activity (relative to DMSO controls), Average
# [5] = replicate Data 1, read-out: % Enzyme Activity (relative to DMSO controls), Data 1
# [6] = replicate Data 2, read-out: % Enzyme Activity (relative to DMSO controls), Data 2
compound,measurement,setting,value
"CC(C)c1cccc(C(C)C)c1O [Propofol, reference compound]",remaining activity at 1 µM,DAPK1; [1],107%
same,remaining activity at 10 µM,DAPK1; [1],86.5%
same,remaining activity at 1 µM,DAPK1; [2],113%
same,remaining activity at 10 µM,DAPK1; [2],86.4%
same,remaining activity at 1 µM,DAPK1; [3],102%
same,remaining activity at 10 µM,DAPK1; [3],86.5%
same,remaining activity at 1 µM,CK1d; [1],126%
same,remaining activity at 10 µM,CK1d; [1],112%
same,remaining activity at 1 µM,CK1d; [2],145%
same,remaining activity at 10 µM,CK1d; [2],116%
same,remaining activity at 1 µM,CK1d; [3],108%
same,remaining activity at 10 µM,CK1d; [3],108%
same,remaining activity at 1 µM,EPHB4; [1],67%
same,remaining activity at 10 µM,EPHB4; [1],68.4%
same,remaining activity at 1 µM,EPHB4; [2],76%
same,remaining activity at 10 µM,EPHB4; [2],68.4%
same,remaining activity at 1 µM,EPHB4; [3],57.9%
same,remaining activity at 10 µM,EPHB4; [3],68.5%
same,remaining activity at 1 µM,EPHB4; read-out: % Enzyme activity at 1μM,67%
same,remaining activity at 10 µM,EPHB4; read-out: % Enzyme activity at 10μM,68.4%
"CC(C)c1nc(CN(C)C(=O)N[C@H](C(=O)N[C@@H](Cc2ccccc2)C[C@H](O)[C@H](Cc2ccccc2)NC(=O)OCc2cncs2)C(C)C)cs1 [Ritonavir, reference compound]",remaining activity at 1 µM,"DAPK1; DAPK1, 1 uM, Average, read-out: % Enzyme Activity (relative to DMSO controls), Average",92.6%
same,remaining activity at 1 µM,"DAPK1; DAPK1, 1 uM, replicate Data 1, read-out: % Enzyme Activity (relative to DMSO controls), Data 1",94.8%
same,remaining activity at 1 µM,"DAPK1; DAPK1, 1 uM, replicate Data 2, read-out: % Enzyme Activity (relative to DMSO controls), Data 2",90.4%
same,remaining activity at 10 µM,"DAPK1; DAPK1, 10 uM, Average, read-out: % Enzyme Activity (relative to DMSO controls), Average",38.5%
same,remaining activity at 10 µM,"DAPK1; DAPK1, 10 uM, replicate Data 1, read-out: % Enzyme Activity (relative to DMSO controls), Data 1",39.2%
same,remaining activity at 10 µM,"DAPK1; DAPK1, 10 uM, replicate Data 2, read-out: % Enzyme Activity (relative to DMSO controls), Data 2",37.7%
same,remaining activity at 1 µM,"DAPK1; DAPK1, compound 1μM, relative to DMSO controls, read-out: % Enzyme activity at 1μM",92.6%
same,remaining activity at 10 µM,"DAPK1; DAPK1, compound 10μM, relative to DMSO controls, read-out: % Enzyme activity at 10μM",38.5%
same,remaining activity at 1 µM,"EPHB4; EPHB4, 1 uM, Average, read-out: % Enzyme Activity (relative to DMSO controls), Average",99.2%
same,remaining activity at 1 µM,"EPHB4; EPHB4, 1 uM, replicate Data 1, read-out: % Enzyme Activity (relative to DMSO controls), Data 1",99.5%
same,remaining activity at 1 µM,"EPHB4; EPHB4, 1 uM, replicate Data 2, read-out: % Enzyme Activity (relative to DMSO controls), Data 2",98.9%
same,remaining activity at 10 µM,"EPHB4; EPHB4, 10 uM, Average, read-out: % Enzyme Activity (relative to DMSO controls), Average",95.1%
same,remaining activity at 10 µM,"EPHB4; EPHB4, 10 uM, replicate Data 1, read-out: % Enzyme Activity (relative to DMSO controls), Data 1",97.2%
same,remaining activity at 10 µM,"EPHB4; EPHB4, 10 uM, replicate Data 2, read-out: % Enzyme Activity (relative to DMSO controls), Data 2",93.1%
same,remaining activity at 1 µM,VEGFR2; [4],111%
same,remaining activity at 1 µM,VEGFR2; [5],111%
same,remaining activity at 1 µM,VEGFR2; [6],112%
same,remaining activity at 10 µM,VEGFR2; [4],109%
same,remaining activity at 10 µM,VEGFR2; [5],113%
same,remaining activity at 10 µM,VEGFR2; [6],106%
CS(=O)(=O)c1ccc(C2=C(c3ccccc3)C(=O)OC2)cc1 [Rofecoxib],"% Enzyme Activity (relative to DMSO controls), Average","DAPK1; DAPK1, 1 uM, Average",107.94%
same,"% Enzyme Activity (relative to DMSO controls), Data 1","DAPK1; DAPK1, 1 uM, replicate Data 1",111.72%
same,"% Enzyme Activity (relative to DMSO controls), Data 2","DAPK1; DAPK1, 1 uM, replicate Data 2",104.16%
same,"% Enzyme Activity (relative to DMSO controls), Average","DAPK1; DAPK1, 10 uM, Average",91.65%
same,"% Enzyme Activity (relative to DMSO controls), Data 1","DAPK1; DAPK1, 10 uM, replicate Data 1",92.47%
same,"% Enzyme Activity (relative to DMSO controls), Data 2","DAPK1; DAPK1, 10 uM, replicate Data 2",90.82%
same,"% Enzyme Activity (relative to DMSO controls), Average","EPHB4; EPHB4, 1 uM, Average",93.84%
same,"% Enzyme Activity (relative to DMSO controls), Data 1","EPHB4; EPHB4, 1 uM, replicate Data 1",92.91%
same,"% Enzyme Activity (relative to DMSO controls), Data 2","EPHB4; EPHB4, 1 uM, replicate Data 2",94.77%
same,"% Enzyme Activity (relative to DMSO controls), Average","EPHB4; EPHB4, 10 uM, Average",82.31%
same,"% Enzyme Activity (relative to DMSO controls), Data 1","EPHB4; EPHB4, 10 uM, replicate Data 1",77.99%
same,"% Enzyme Activity (relative to DMSO controls), Data 2","EPHB4; EPHB4, 10 uM, replicate Data 2",86.63%
Nc1c2c(nc3ccccc13)CCCC2 [Tacrine],"% Enzyme Activity (relative to DMSO controls), Data 2",CK1d,118.35%
same,"% Enzyme Activity (relative to DMSO controls), Data 2",EPHB4,73.14% and 73.39%
same,"% Enzyme Activity (relative to DMSO controls), Data 2",VEGFR2,94.26% and 99.54%
Penicillin,"% Enzyme Activity (relative to DMSO controls), Average","CK1d; CK1d, 1 uM",98.45%
same,"% Enzyme Activity (relative to DMSO controls), Data 1","CK1d; CK1d, 1 uM",97.41%
same,"% Enzyme Activity (relative to DMSO controls), Data 2","CK1d; CK1d, 1 uM, replicate Data 2",99.49%
same,"% Enzyme Activity (relative to DMSO controls), Average","CK1d; CK1d, 10 uM",115.43%
same,"% Enzyme Activity (relative to DMSO controls), Data 1","CK1d; CK1d, 10 uM",111.85%
same,"% Enzyme Activity (relative to DMSO controls), Data 2","CK1d; CK1d, 10 uM, replicate Data 2",119.01%
same,"% Enzyme Activity (relative to DMSO controls), Average","EPHB4; EPHB4, 1 uM, Average",101.77%
same,"% Enzyme Activity (relative to DMSO controls), Data 1","EPHB4; EPHB4, 1 uM, replicate Data 1",104.24%
same,"% Enzyme Activity (relative to DMSO controls), Data 2","EPHB4; EPHB4, 1 uM, replicate Data 2",99.3%
same,"% Enzyme Activity (relative to DMSO controls), Average","EPHB4; EPHB4, 10 uM, Average",95.95%
same,"% Enzyme Activity (relative to DMSO controls), Data 1","EPHB4; EPHB4, 10 uM, replicate Data 1",97.18%
same,"% Enzyme Activity (relative to DMSO controls), Data 2","EPHB4; EPHB4, 10 uM, replicate Data 2",94.72%
